Experimental data as given in patent US10976310B2, “Ligand identification by co-fractionation” (MAX-PLANCK-GESELLSCHAFT ZUR FÖRDERUNG DER WISSENSCHAFTEN …, priority 2016, dated 2021).
Blank lines part the entries; values can stand above or below the molecule they belong to.

Assays:
Rbp47b = molecular target: T1, Rbp47b (Arabidopsis thaliana, UniProt Q0WW84); test: MST measurement of ligand binding to recombinant Rbp47b
T1 sequence (Q0WW84 1-435): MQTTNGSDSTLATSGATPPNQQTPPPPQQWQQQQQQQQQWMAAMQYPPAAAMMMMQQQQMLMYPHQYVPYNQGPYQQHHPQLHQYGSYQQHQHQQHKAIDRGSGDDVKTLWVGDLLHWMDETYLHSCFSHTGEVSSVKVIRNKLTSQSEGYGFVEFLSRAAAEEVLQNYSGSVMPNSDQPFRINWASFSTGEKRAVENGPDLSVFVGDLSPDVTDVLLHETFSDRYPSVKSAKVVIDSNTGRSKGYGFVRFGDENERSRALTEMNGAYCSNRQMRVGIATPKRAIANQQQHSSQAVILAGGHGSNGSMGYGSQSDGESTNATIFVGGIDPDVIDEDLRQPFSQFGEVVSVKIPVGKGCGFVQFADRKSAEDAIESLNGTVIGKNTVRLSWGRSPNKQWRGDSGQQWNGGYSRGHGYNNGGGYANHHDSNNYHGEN
Source text: We therefore attempted to determine the in vitro binding affinity biophysically using micro-scale thermophoresis (MST) (Jerabek-Willemsen et al. (2011) Molecular interaction studies using microscale thermophoresis. Assay Drug Dev Technol 9: 342-353). MST exploits the effect of size, charge, and hydration shell on the movement of molecules in a temperature gradient. Complex formation resulting in alteration of at least one of the three parameters leads to differential movement, from which the binding affinity can be determined. For the purpose of the MST experiment, Rbp47b was expressed in and purified from E. coli. […] The measured Kd value also corresponds to the ˜20 μM concentration of 2′,3′-cAMP measured in the native Arabidopsis lysate (FIG. 11B).
TIA1 protein was purchased from Origene (Herford, Germany). Rbp47b was cloned as a C-terminal GFP fusion (to increase protein solubility) into the E. coli expression vector pDEST14 containing His6-tag at the N-terminal of the Gateway (Karlsruhe, Germany) cassette. […]
Next day, cells were disrupted with an Avestin (Mannheim, Germany) EmulsiFlex C3 homogenizer and the protein was purified using imidazole-gradient purification in Ni-NTA agarose (Qiagen 34080, Hilden, Germany). […] Protein purity was assessed by SDS-PAGE and protein identification was done using western blot using anti-His6 antibodies. […]

TIA1 = molecular target: T2, TIA1 (Homo sapiens, UniProt P31483); test: MST measurement of ligand binding to recombinant TIA1
T2 construct: purchased Origene (Herford, Germany)
T2 sequence (P31483 1-386): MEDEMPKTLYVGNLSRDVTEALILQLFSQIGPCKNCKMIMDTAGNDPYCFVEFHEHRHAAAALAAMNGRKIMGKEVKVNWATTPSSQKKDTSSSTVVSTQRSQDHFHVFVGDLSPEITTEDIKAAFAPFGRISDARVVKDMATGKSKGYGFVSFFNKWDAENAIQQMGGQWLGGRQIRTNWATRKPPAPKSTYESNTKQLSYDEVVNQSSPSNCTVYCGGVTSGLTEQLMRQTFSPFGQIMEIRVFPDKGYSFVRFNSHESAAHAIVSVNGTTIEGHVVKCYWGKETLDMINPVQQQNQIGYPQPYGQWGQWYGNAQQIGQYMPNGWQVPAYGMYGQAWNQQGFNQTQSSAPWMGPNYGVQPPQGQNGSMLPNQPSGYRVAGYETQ
Method: Expecting such a basic role of 2′,3′-cAMP to be conserved, we performed similar analysis with TIA1, the human functional homolog of Rbp47b. TIA1 was labeled and its interaction with 2′,3′-cAMP was determined using MST.
TIA1 protein was purchased from Origene (Herford, Germany). Rbp47b was cloned as a C-terminal GFP fusion (to increase protein solubility) into the E. coli expression vector pDEST14 containing His6-tag at the N-terminal of the Gateway (Karlsruhe, Germany) cassette. Rosetta cells expressing His6-Rbp47b-GFP were grown at 28° C. overnight and next day were moved to Terrific Broth medium supplied with 1% sucrose and relevant antibiotics. Cultures at OD 0.4 were induced by addition of 0.1 mM IPTG and transferred to 16° C. for overnight incubation.
MST measurements were performed using a Monolith NT.115 instrument (NanoTemper, München, Germany). Capillaries were loaded into the instrument as sets of 13-16 point ligand titrations. Proteins (Rb47b and TIA1) were labeled in phosphate buffer (PBS) using Monolith™ protein labeling kit RED-NHS (amine reactive; MO-L001) according to the manufacturers instruction. Excitation was optimized by varying the LED power to yield emission intensities above 200 AU, corresponding to 10-50 nM labeled protein. Monolith power was set to 60%. Ligands [2′,3′-cAMP (Sigma A9376)] and [3′,5′-cAMP (Sigma A6885)] were dissolved in PBS. […]

Rbp47b-TAP protein = molecular target: T3, Rbp47b-TAP protein (Arabidopsis thaliana, UniProt Q0WW84); test: Cellular thermal shift assay (CETSA) in native Arabidopsis lysate; type: binding; conditions: analogous experiment, native protein lysate
T3 construct: expressed in transfected cells; host or cells: Arabidopsis cell suspension culture, Agrobacterium-transformed
T3 sequence (Q0WW84 1-435): T1 sequence (Q0WW84 1-435)
Method: To this end we set out to identify the binding protein partners of 2′,3′-cAMP by applying affinity purification (AP) using agarose beads, with 2′,3′-cAMP linked via the NH2 group of the purine ring. After incubation of the beads with total soluble-protein extracts from A. thaliana cell suspension cultures (cf. Materials and Methods) sequential washings with ADP, GDP, 5′-AMP, and finally 2′,3′-cAMP were performed, and the proteins eluting in the different washings were analyzed by LC-MS/MS proteomics. Proteins eluting from the agarose beads exclusively with 2′,3′-cAMP but absent in any of the other eluents (ADP, GDP, or 5′-AMP; FIG. 10A) were defined as 2′,3′-cAMP-binding. Applying this stringent criterion only one protein remained: the polyadenylate-binding protein Rbp47b. We reasoned that the putative formation of Rbp47b-2′,3′-cAMP complexes in vivo should be reflected by largely overlapping elution profiles of the two components in a size-exclusion experiment (SEC), as was indeed the case (FIG. 10B). To obtain further and independent evidence for the formation of a complex between Rbp47b and 2′,3′-cAMP, we performed a cellular thermal shift assay (CETSA) (Franken et al. (2015) Thermal proteome profiling for unbiased identification of direct and indirect drug targets using multiplexed quantitative mass spectrometry. Nat Protoc 10: 1567-1593). CESTA is a method used in the drug research to verify ligand-receptor binding in the native cellular lysate, based on the observation that presence of the ligand changes thermal stability of the protein receptor. Herein, we adapted the protocol to be suitable for the plant material and an endogenous […] metabolite. We used Arabidopsis cells expressing a tagged version of the Rbp47b, so that Rbp47b level could be easily detected with the anti-tag antibody. […] Taken together, three independent experimental approaches (AP, SEC, and CETSA) provide evidence for the binding of 2′,3′-cAMP to Rbp47b in the native Arabidopsis lysate. […]

[1] = molecular target: T4, gibberellin receptor GID1 (Oryza sativa subsp. japonica, UniProt Q6L545); conditions: Ueguchi-Tanaka et al. (2005); read-out: Kd of binding to GID1; cited from earlier work
T4 sequence (Q6L545 1-354): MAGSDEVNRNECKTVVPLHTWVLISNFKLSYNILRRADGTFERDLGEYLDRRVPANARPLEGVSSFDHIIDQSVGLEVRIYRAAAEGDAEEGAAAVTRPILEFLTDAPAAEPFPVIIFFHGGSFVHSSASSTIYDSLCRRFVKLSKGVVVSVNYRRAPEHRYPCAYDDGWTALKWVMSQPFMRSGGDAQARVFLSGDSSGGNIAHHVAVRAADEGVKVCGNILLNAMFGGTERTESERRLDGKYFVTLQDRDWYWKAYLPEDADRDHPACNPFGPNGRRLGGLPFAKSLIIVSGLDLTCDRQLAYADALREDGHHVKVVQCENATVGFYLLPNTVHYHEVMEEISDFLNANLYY

[2] = molecular target: T5, Methylthioribose-1-phosphate isomerase (MTR-1-P) (Arabidopsis thaliana, UniProt Q9ZUG4); test: Microscale thermophoresis (MST) assay, MTA-MTR-1-P interaction; type: binding; conditions: mean±SD, n=3
T5 sequence (Q9ZUG4 1-374): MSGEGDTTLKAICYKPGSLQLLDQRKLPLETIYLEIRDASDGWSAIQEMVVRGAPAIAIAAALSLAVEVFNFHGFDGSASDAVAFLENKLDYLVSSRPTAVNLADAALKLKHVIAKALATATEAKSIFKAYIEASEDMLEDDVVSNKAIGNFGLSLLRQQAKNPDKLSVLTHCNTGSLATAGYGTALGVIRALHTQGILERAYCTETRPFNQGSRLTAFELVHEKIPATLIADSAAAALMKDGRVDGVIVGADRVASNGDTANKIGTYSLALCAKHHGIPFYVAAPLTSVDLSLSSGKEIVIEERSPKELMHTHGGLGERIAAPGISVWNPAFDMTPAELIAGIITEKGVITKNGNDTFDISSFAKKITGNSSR

[3] = molecular target: T6, 3-methyl-2 oxobutanoate hydroxymethyl-transferase 1 (KPHMT1) (Arabidopsis thaliana, UniProt O82357); test: Microscale thermophoresis (MST) assay, Panthotenate-KPHMT1 interaction; type: binding; conditions: mean±SD, n=3
T6 sequence (O82357 49-347): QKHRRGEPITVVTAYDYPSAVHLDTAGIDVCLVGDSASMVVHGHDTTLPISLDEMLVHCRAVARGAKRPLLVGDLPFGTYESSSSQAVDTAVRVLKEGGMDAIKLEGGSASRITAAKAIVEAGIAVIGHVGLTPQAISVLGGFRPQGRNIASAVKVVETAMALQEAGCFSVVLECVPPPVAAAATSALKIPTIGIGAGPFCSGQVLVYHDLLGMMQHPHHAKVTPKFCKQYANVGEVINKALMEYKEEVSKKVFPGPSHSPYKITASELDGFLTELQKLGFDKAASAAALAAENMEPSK
Method: B) Panthotenate-KPHMT1 interaction was tested by Microscale thermophoresis (MST) assay. […] Data are mean±SD, n=3.

PYR1 receptor = molecular target: T7, PYR1 receptor (Arabidopsis thaliana, UniProt O49686); conditions: Dupeux et al. (2011); read-out: Kd of binding to PYR1; cited from earlier work
T7 sequence (O49686 1-191): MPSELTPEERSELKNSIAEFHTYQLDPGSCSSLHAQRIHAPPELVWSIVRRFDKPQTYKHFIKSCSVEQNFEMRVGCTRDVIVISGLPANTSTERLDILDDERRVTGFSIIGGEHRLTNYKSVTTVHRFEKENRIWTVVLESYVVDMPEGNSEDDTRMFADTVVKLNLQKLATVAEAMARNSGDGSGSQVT

binding to Rbp47b (in words) (Rbp47b): did not observe any binding
binding to TIA1 (in words) (TIA1): not
effect on thermal stability of Rbp47b (in words) (Rbp47b-TAP protein): No such effect was observed
SMILES: Nc1ncnc2c1ncn2[C@@H]1O[C@@H]2COP(=O)(O)O[C@H]2[C@H]1O [3′,5′-cAMP, reference compound]

SMILES: CC1C[C@]23C[C@H]1CCC2[C@]12CC[C@H](O)[C@](C)(C(=O)O1)[C@H]2[C@@H]3C(=O)O (stereo partly shown) [16,17-dihydro-GA4]
Kd [1]: 1.4 µM

SMILES: CSC[C@H]1O[C@@H](n2cnc3c(N)ncnc32)[C@H](O)[C@@H]1O [MTA, Methylthioadenosine]
Kd [2]: 2.7 µM

SMILES: CC(C)(CO)[C@@H](O)C(=O)NCCC(=O)O [Panthotenate, Pantothenic acid]
Kd [3]: 367 µM

SMILES: CC1=CC(=O)CC(C)(C)[C@@]1(O)/C=C/C(C)=C\C(=O)O [abscisic acid]
Kd (PYR1 receptor): 97 µM
